Experimental data from ChEMBL document CHEMBL1201862, “PubChem BioAssay data set” (2004).
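Compound exposure: 48 hours, 5 concentrations, 96-well plates. GI50: concentration for 50% inhibition of growth.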 Calls of active or inactive are those of the source. No stated cut-off is given here; in the data, active = GI50 up to about 1.1 µM and inactive = higher.

Tests used:
Assay in all cases: inhibition of tumour cell growth, NCI panel, 48 h
[1] = test system: 786-0
[2] = test system: A498
[3] = test system: A549
[4] = test system: ACHN
[5] = test system: BT-549
[6] = test system: CAKI-1
[7] = test system: CCRF-CEM
[8] = test system: COLO 205
[9] = test system: DU-145
[10] = test system: EKVX
[11] = test system: HCC 2998
[12] = test system: HCT-116
[13] = test system: HCT-15
[14] = test system: HL-60
[15] = test system: HOP-62
[16] = test system: HOP-92
[17] = test system: HT-29
[18] = test system: Hs-578T
[19] = test system: IGROV-1
[20] = test system: K562
[21] = test system: KM12
[22] = test system: LOX IMVI
[23] = test system: M14
[24] = test system: MCF7
[25] = test system: MDA-MB-231
[26] = test system: MDA-MB-435
[27] = test system: MDA-N
[28] = test system: MOLT-4
[29] = test system: Malme-3M
[30] = test system: NCI-H226
[31] = test system: NCI-H23
[32] = test system: NCI-H460
[33] = test system: NCI-H522
[34] = test system: NCI/ADR-RES
[35] = test system: OVCAR-3
[36] = test system: OVCAR-4
[37] = test system: OVCAR-5
[38] = test system: OVCAR-8
[39] = test system: PC-3
[40] = test system: RPMI-8226
[41] = test system: RXF 393
[42] = test system: SF-268
[43] = test system: SF-295
[44] = test system: SF-539
[45] = test system: SK-MEL-28
[46] = test system: SK-MEL-2
[47] = test system: SK-MEL-5
[48] = test system: SK-OV-3
[49] = test system: SN12C
[50] = test system: SNB-19
[51] = test system: SNB-75
[52] = test system: SR
[53] = test system: SW-620
[54] = test system: T47D
[55] = test system: TK-10
[56] = test system: U-251
[57] = test system: UACC-257
[58] = test system: UACC-62
[59] = test system: UO-31

## CC(C)(C)c1cc(OCc2nnc(S)n2N)c(Cl)cc1OCc1nnc(S)n1N
[1]
  GI50: 59.6 µM (inactive)
[2]
  GI50: 30.6 µM (inactive)
[3]
  GI50: 52.2 µM (inactive)
[4]
  GI50: 63.7 µM (inactive)
[5]
  GI50: 37.5 µM (inactive)
[6]
  GI50: > 100 µM (inactive)
[7]
  GI50: 22.9 µM (inactive)
[8]
  GI50: 42.2 µM (inactive)
[9]
  GI50: 59 µM (inactive)
[10]
  GI50: 49.7 µM (inactive)
[11]
  GI50: 31.1 µM (inactive)
[12]
  GI50: 33 µM (inactive)
[13]
  GI50: 55.8 µM
[14]
  GI50: 4.19 µM (inactive)
[15]
  GI50: 59 µM (inactive)
[16]
  GI50: 28.1 µM (inactive)
[17]
  GI50: 43.9 µM (inactive)
[18]
  GI50: 43 µM (inactive)
[19]
  GI50: 44.9 µM (inactive)
[20]
  GI50: 37.7 µM (inactive)
[21]
  GI50: 40.9 µM (inactive)
[22]
  GI50: 34.8 µM (inactive)
[23]
  GI50: 51.3 µM (inactive)
[24]
  GI50: 38.5 µM (inactive)
[25]
  GI50: 27.5 µM (inactive)
[26]
  GI50: 39.5 µM (inactive)
[27]
  GI50: 41.3 µM (inactive)
[28]
  GI50: 22.6 µM (inactive)
[29]
  GI50: 38.1 µM (inactive)
[30]
  GI50: > 100 µM (inactive)
[31]
  GI50: 42.8 µM (inactive)
[32]
  GI50: 24 µM (inactive)
[33]
  GI50: 35.2 µM (inactive)
[34]
  GI50: > 100 µM (inactive)
[35]
  GI50: 32.4 µM (inactive)
[36]
  GI50: 43.3 µM (inactive)
[37]
  GI50: 63.7 µM (inactive)
[38]
  GI50: 50.5 µM (inactive)
[39]
  GI50: 28.2 µM (inactive)
[40]
  GI50: 29.5 µM (inactive)
[41]
  GI50: 26.2 µM (inactive)
[42]
  GI50: 45.5 µM (inactive)
[43]
  GI50: 43.1 µM (inactive)
[44]
  GI50: 48.3 µM (inactive)
[45]
  GI50: 45.9 µM (inactive)
[46]
  GI50: 18.4 µM (inactive)
[47]
  GI50: 26.5 µM (inactive)
[48]
  GI50: > 100 µM (inactive)
[49]
  GI50: 28.4 µM (inactive)
[50]
  GI50: 42.1 µM (inactive)
[51]
  GI50: 44.1 µM (inactive)
[52]
  GI50: 22.3 µM (inactive)
[53]
  GI50: 43.2 µM (inactive)
[54]
  GI50: 30.6 µM (inactive)
[55]
  GI50: 52.2 µM (inactive)
[56]
  GI50: 29.7 µM (inactive)
[57]
  GI50: 33 µM (inactive)
[58]
  GI50: 20.7 µM (inactive)
[59]
  GI50: 63.2 µM (inactive)
